# Measured values taken from US20150337351A1, “METHODS OF MICROORGANISM IMMOBILIZATION” (priority 2014, published 2015).
# How the values were obtained:
# Assay type in all cases: cell-based
# [1] = tested on: Escherichia coli ATCC 25922 (Ecol); assay: Biosensor mixed species diffusion assay (immobilized cells, microscopic detection), growth of sentinel strain; details: for Mixed species resistance factor diffusion? / Ecol growth in distal site? / Ecol growth in proximal site?: MEM 4 (4 μg/mL); for Ecol growth in distal site?: distal from Paer; for Ecol growth in proximal site?: proximal to Paer
# Description: (§1) A mixed species diffusion variation of Hodge test using a biosensor with immobilized cells and microscopic detection was performed using the same bacterial strains. Heavy suspensions of Ecol and Paer were prepared in L-histidine buffer from fresh overnight blood agar plates. Heavy suspensions were diluted in normal saline to produce 0.5 McFarland suspensions, noting the volumes of each suspension required and using the same volumes to produce 10^8 cfu/mL suspensions of each strain in L-histidine. These suspensions were further diluted to create […] and 2×10^5 cfu/mL suspensions for heavy and moderate density working samples. The working samples were then diluted 1:1 in 2 mM L-DOPA for EKC.
# (§2) The strains were next introduced to a biosensor for EKC, immobilization, and detection. Paer suspensions were loaded first, placing 5 uL in the exit port side (to maintain the resistant Paer isolate in one half of each channel) of each biosensor flowcell channel to cover one half of the flowcell. Six flowcells were loaded with each concentration. EKC was performed for 5 minutes at 1.5V, and then all flowcells were washed with two aliquots of 160 μL 1 mM L-DOPA (from the entry port). Ecol suspensions were next loaded, introducing 20 μL of cells suspension from the entry port to cover the full flowcell. Six flowcells were loaded with each concentration. EKC was performed for 5 minutes at 1.5V, and all flowcells washed with 160 μL of 1/10 MHB. The manner in which the cells were introduced and captures created a site comprising Ecol cells that were distal from any Paer cells (i.e., on the entry port side of the flowcell), as well as Ecol cells that were proximal to the Paer cells (i.e., on the exit port side of the flowcell).
# (§3) Antibiotic media were prepared for immobilization and inhibition testing as follows. […] An immobilization medium source plate was prepared in the detection system and maintained at 45° C. The source plate wells were loaded with 20 μL of the 10× stocks and MHB without antibiotic for growth controls. The sample cassette was placed in the detection system and maintained at 40° C. A 180 uL volume of 0.944% MHA was added to each well of the source plate and mixed, and 100 uL of pre-immobilization immobilizing medium (with an agar concentration of 0.850%) was withdrawn and introduced to a flowcell in accordance with the experimental design. The loaded biosensor was allowed to equilibrate for 5 minutes, and was then removed and cooled for 5 minutes to induce the agar immobilizing agent to change to solid phase. The flowcell ports were then sealed, and growth, imaging, and analysis were performed, with examination of each flowcell for growth of Paer, examination of the distal portion of each flowcell for growth of Ecol in the absence of Paer (distal sensitivity), and examination of the proximal portion of each flowcell for growth of Ecol in the presence of Paer (proximal resistance), indicative of a positive mixed species resistance due to diffusion of metallo-beta-lactamase.
# (§4) In order to test for enzyme-mediated cross-species resistance effects, a method for was devised to test a sensitive strain, Escherichia coli ATCC 25922 (Ecol), in the presence of a resistant strain, Pseudomonas aeruginosa IHMA 519749 (Paer) in the immobilized format. The method involved first immobilizing the resistant strain on the surface of a portion of each test flowcell of the cassette (approximately half) and then immobilizing the sensitive (sentinel) strain on the surface of the full flowcell including the area containing the resistant strain. This strategy provides an internal control for treatment effects on the sentinel strain in an area far from the resistant strain along with an area where close-field effects can be observed in the same flowcell. […]
# [2] = tested on: Pseudomonas aeruginosa IHMA 519749 (Paer); assay: Biosensor mixed species diffusion assay (immobilized cells, microscopic detection), growth of resistant strain; details: for Paer growth?: MEM 4 (4 μg/mL), MHA 0.850% agar, 4 hours
# Description: as §1, §2, §3, §4
# [3] = tested on: Staphylococcus aureus (SA); assay: Clone growth of captured, MHA-immobilized cells from simulated blood, darkfield digital microscopy; details: 6 μg/mL FOX; 3 hours (0, 60, 120, 180 minutes); 35° C.
# Description: Simulated blood specimens were used. Simulated blood specimens were produced by spiking SA, PA, and non-target bacilli species isolates into 10 mL volumes of blood from two short-fill CPD blood bank bags. A total of 29 simulated blood samples were produced, each having a microorganism concentration of approximately 5 CFU/mL of bacterial target species, confirmed by quantitative culture. Spiked isolates used to produce the simulated blood samples included 14 Staphylococcus aureus (SA), 3 Pseudomonas aeruginosa (PA), and 12 non-target Gram-negative bacilli species. Twenty additional control samples were produced which contained no spikes. Each sample was diluted with 30 mL of modified tryptic soy broth medium to promote growth, followed by a 4-hour incubation at 35° C. Following the 4-hour incubation period, samples were centrifuged briefly. The resulting microorganism cells pellets were resuspended in an electrokinetic concentration buffer to produce 1 mL samples for introduction into the detection system. Microorganism samples comprising 20 μL aliquots were pipetted into 14 microchannel flowcells. A 5-minute low-voltage electrokinetic capture was performed to concentrate the microorganisms on to a detection surface associated with each flowcell. […] Controls included quantitative culturing, disk diffusion tests for isolate resistance phenotype, and 20 blood samples without spikes.
# [4] = Flowcell 9, Ecol 10^6/Paer 10^6
# [5] = Flowcell 9, Ecol 10^6/Paer 10^6, 4 hours
# [6] = Flowcell 10, Ecol 10^6/Paer 10^5
# [7] = Flowcell 10, Ecol 10^6/Paer 10^5, 4 hours
# [8] = Flowcell 11, Ecol 10^5/Paer 10^6
# [9] = Flowcell 11, Ecol 10^5/Paer 10^6, 4 hours
# [10] = Flowcell 12, Ecol 10^5/Paer 10^5
# [11] = Flowcell 12, Ecol 10^5/Paer 10^5, 4 hours
Compound,"Mixed species resistance factor diffusion? [1, 4]","Ecol growth in distal site? [1, 5]","Ecol growth in proximal site? [1, 5]","Mixed species resistance factor diffusion? [1, 6]","Ecol growth in distal site? [1, 7]","Ecol growth in proximal site? [1, 7]","Mixed species resistance factor diffusion? [1, 8]","Ecol growth in distal site? [1, 9]","Ecol growth in proximal site? [1, 9]","Mixed species resistance factor diffusion? [1, 10]","Ecol growth in distal site? [1, 11]","Ecol growth in proximal site? [1, 11]","Ecol growth and morphology under antibiotic (time-lapse images) ([1]; MEM at 4 μg/mL, immobilized in MHA, 4 hours)","Paer growth? [2, 4]","Paer growth? [2, 6]","Paer growth? [2, 8]","Paer growth? [2, 10]","Paer growth morphology and rate under antibiotic vs growth control ([2]; MEM at 4 μg/mL, immobilized in MHA, proximal site)","SA clone growth in immobilizing medium with antibiotic (darkfield images, FIG. 2B) [3]"
"C[C@@H](O)[C@H]1C(=O)N2C(C(=O)O)=C(S[C@@H]3CN[C@H](C(=O)N(C)C)C3)[C@H](C)[C@H]12 [MEM, meropenem]",No,No,No,No,No,No,No,No,No,No,No,No,slight growth or elongation of the single cell with later fading and in many colonies complete lysis,Yes,Yes,Yes,Yes,same morphology and growth rate as the growth control condition,
"CO[C@@]1(NC(=O)Cc2cccs2)C(=O)N2C(C(=O)O)=C(COC(N)=O)CS[C@@H]21 [FOX, cefoxitin]",,,,,,,,,,,,,,,,,,,growth indicating a methicillin-resistant phenotype
